Results published in US11497729B2, “Methods and materials for treating cancer” (Mayo Foundation for Medical Education and Research, priority 2016, dated 2022).
“Also recorded” adds a separate entry of the source.

Key:
HER1 (EGFR) = test: Western blot of ZR-75-1 cell lysates, HER1; type: cell-based; conditions: ZR-75-1 cells, 10 μM P005091 for 12 hours; FIG. 5
Procedure: (§1) Breast cancer cells ZR-75-1 were treated with either 1% DMSO or 10 μM P005091 for 12 hours. Cell lysates were subjected to western blot with indicated antibodies (FIG. 5).

HER3 = test: Western blot of ZR-75-1 cell lysates, HER3; type: cell-based; conditions: ZR-75-1 cells, 10 μM P005091 for 12 hours; FIG. 5
Procedure: as §1

HER4 = test: Western blot of ZR-75-1 cell lysates, HER4; type: cell-based; conditions: ZR-75-1 cells, 10 μM P005091 for 12 hours; FIG. 5
Procedure: as §1

HER2 = test: Western blot of ZR-75-1 cell lysates, HER2; type: cell-based; conditions: ZR-75-1 cells, 10 μM P005091 for 12 hours; FIG. 5
Procedure: as §1

[1] = test system: HER2+ breast cancer cells; test: Cell survival by MTS assay, Herceptin with or without P005091; type: cell-based; conditions: FIG. 4A
Procedure: (§2) P005091 increased the efficacy of the HER2 inhibitor, trastuzumab, in HER2^+ breast cancer cells, xenografts, and PDX models. HER2^+ breast cancer cells were treated with indicated concentrations of Herceptin with or without 10 μM P005091 for 72 hours. Cell survival was determined by MTS assays. Data was shown as mean values for three independent experiments, and error bars represent standard error of the mean (SEM) (n=3) (FIG. 4A). Tumor xenografts were initiated by subcutaneous inoculation of Bt474 parental and Bt474 Herceptin resistance cells in the lower back of SCID mice. Herceptin (15 mg/kg) and P005091 (10 mg/kg) were administered intraperitoneally once a week for the entire duration of the study. […] A HER2^+ patient derived xenograft model was tested by inoculation of tissues in the lower back of SCID mice (FIG. 4C). Drug treatment was same as described above. Data represent the mean±SD of 6 mice in each group.

[2] = test system: HER2+ patient derived xenograft; test: HER2+ patient derived xenograft model in SCID mice; type: in vivo; conditions: Herceptin 15 mg/kg and P005091 10 mg/kg intraperitoneally once a week, FIG. 4C
Procedure: as §2

Compound: CC(=O)c1cc([N+](=O)[O-])c(Sc2cccc(Cl)c2Cl)s1 [P005091, 1-[5-(2,3-dichlorophenyl)sulfanyl-4-nitrothiophen-2-yl]ethanone]
- HER1 (EGFR) protein level by Western blot (HER1 (EGFR)): down regulated
- HER3 protein level by Western blot (HER3): down regulated
- HER4 protein level by Western blot (HER4): down regulated
- HER2 protein level by Western blot (HER2): down regulated
- sensitization effect in HER2 resistant breast cancer cell lines ([1]; HER2 resistant breast cancer cell lines): sensitization effect occurred
- sensitization of HER2+ breast cancer cells to trastuzumab treatment (cell survival) ([1]; four different HER2+ breast cancer cells, 10 μM P005091 with Herceptin for 72 hours): sensitizes; also recorded: dramatically sensitized
- sensitivity of PDX model to treatment [2]: dramatically sensitized
